This passage reports IC50 results from patent US20240083900A1, “PYRAZOLO[1,5-A]PYRAZINE DERIVATIVES AS BTK INHIBITORS” (BIOGEN MA INC., priority 2020, published 2024).

A value given as a limit tells only on which side of the number the result lay.

Chain of BTK (Q06187 whole entry): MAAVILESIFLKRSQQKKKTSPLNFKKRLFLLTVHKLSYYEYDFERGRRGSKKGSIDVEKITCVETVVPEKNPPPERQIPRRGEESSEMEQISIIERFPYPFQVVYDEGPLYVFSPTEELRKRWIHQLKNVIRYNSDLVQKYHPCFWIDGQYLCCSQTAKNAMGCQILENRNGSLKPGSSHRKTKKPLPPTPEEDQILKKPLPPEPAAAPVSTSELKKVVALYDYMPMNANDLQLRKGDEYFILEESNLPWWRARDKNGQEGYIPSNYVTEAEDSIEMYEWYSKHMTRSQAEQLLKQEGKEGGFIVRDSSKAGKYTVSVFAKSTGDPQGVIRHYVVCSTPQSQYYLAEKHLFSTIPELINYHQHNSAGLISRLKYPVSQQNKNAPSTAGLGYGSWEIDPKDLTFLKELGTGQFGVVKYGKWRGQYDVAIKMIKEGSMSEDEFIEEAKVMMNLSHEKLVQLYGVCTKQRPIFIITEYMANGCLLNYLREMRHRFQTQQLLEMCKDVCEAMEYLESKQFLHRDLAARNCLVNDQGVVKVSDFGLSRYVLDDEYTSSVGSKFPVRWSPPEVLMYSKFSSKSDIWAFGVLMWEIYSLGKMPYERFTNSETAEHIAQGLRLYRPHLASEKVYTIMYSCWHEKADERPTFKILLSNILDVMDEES

This assay addresses BTK (Homo sapiens (Human), UniProt Q06187). The assay is described as follows: In Vitro BTK Kinase Assay: Btk-PolyGAT-LS Assay. Format: biochemical. The note with it: BTK enzyme 0.25 nM, ATP 10 μM, polyGAT 100 nM, 30 minutes incubation, TRF readout; read-out: IC50. The protocol: The purpose of the BTK in vitro assay is to determine compound potency against BTK through the measurement of IC50. […] For a typical assay, a 24 μL aliquot of a ATP/peptide master mix (final concentration; ATP 10 μM, polyGAT 100 nM) in kinase buffer (10 mM Tris-HCl pH 7.5, 10 mM MgCl2, 200 μM Na3PO4, 5 mM DTT, 0.01% Triton X-100, and 0.2 mg/ml casein) is added to each well. […] The assay is incubated for 30 minutes before being stopped with 28 μL of a 50 mM EDTA solution. […] The plate is covered and incubated for 45 minutes at room temperature.
Turning to `C=CC(=O)N1CCCC(N(C)Cc2nc(-c3cnn(C)c3)cn3nccc23)C1` (stereo not drawn) [Example 91, 1-(3-(methyl((6-(1-methyl-1H-pyrazol-4-yl)pyrazolo[1,5-a]pyrazin-4-yl)methyl)amino)piperidin-1-yl)prop-2-en-1-one], the IC50 was 10 to 1000 nM.
For the compound `CN(C)C/C=C/C(=O)N[C@H]1CCC[C@@H](Oc2nc(-c3cnn(C)c3)cn3ncc(F)c23)C1` [Example 94, (E)-4-(dimethylamino)-N-((1S,3R)-3-((3-fluoro-6-(1-methyl-1H-pyrazol-4-yl)pyrazolo[1,5-a]pyrazin-4-yl)oxy)cyclohexyl)but-2-enamide], the 50% inhibitory concentration (IC50) fell in the range of 10 to 1000 nM.
As to `C=CC(=O)N(C1CC1)[C@H]1C[C@H](Oc2nc(-c3cnn(C)c3)cn3nccc23)C1` [Example 102, N-cyclopropyl-N-((trans)-3-((6-(1-methyl-1H-pyrazol-4-yl)pyrazolo[1,5-a]pyrazin-4-yl)oxy)cyclobutyl)acrylamide], the IC50 fell in the range of 1 to 10 nM.
Take `C/C=C/C(=O)Nc1cc(Oc2nc(-c3cnn(C)c3)cn3nccc23)ccc1C` [Example 131, (E)-N-(2-methyl-5-((6-(1-methyl-1H-pyrazol-4-yl)pyrazolo[1,5-a]pyrazin-4-yl)oxy)phenyl)but-2-enamide]: the IC50 was 10 to 1000 nM.
As for `C=CC(=O)NCc1cccc(Oc2nc(-c3cnn(C)c3)cn3nccc23)c1` [Example 132, N-(3-((6-(1-methyl-1H-pyrazol-4-yl)pyrazolo[1,5-a]pyrazin-4-yl)oxy)benzyl)acrylamide], the IC50 fell in the range of 10 to 1000 nM.
For `Cn1cc(-c2cn3nccc3c(Oc3cccc(NC(=O)C#CC4CC4)c3Cl)n2)cn1` [Example 133, N-(2-chloro-3-((6-(1-methyl-1H-pyrazol-4-yl)pyrazolo[1,5-a]pyrazin-4-yl)oxy)phenyl)-3-cyclopropylpropiolamide] the value was less than 1 nM.
For the compound `Cc1c(NC(=O)C2=CCC2)cc(F)cc1Oc1nc(-c2cnn(C)c2)cn2nccc12` [Example 134, N-(5-fluoro-2-methyl-3-((6-(1-methyl-1H-pyrazol-4-yl)pyrazolo[1,5-a]pyrazin-4-yl)oxy)phenyl)cyclobut-1-ene-1-carboxamide], the IC50 was 1 to 10 nM.
For `Cc1c(NC(=O)/C=C/CN(C)C2CCC2)cccc1Oc1nc(-c2cnn(C)c2)cn2nccc12` [Example 135, (E)-4-(cyclobutyl(methyl)amino)-N-(2-methyl-3-((6-(1-methyl-1H-pyrazol-4-yl)pyrazolo[1,5-a]pyrazin-4-yl)oxy)phenyl)but-2-enamide] the value was 10 to 1000 nM.
For the compound `O=C(/C=C/C(F)(F)F)Nc1cccc(Oc2nc(-c3cnn(C4CCOC4)c3)cn3nccc23)c1F` (stereo not drawn) [Example 136, (E)-4,4,4-trifluoro-N-(2-fluoro-3-((6-(1-(tetrahydrofuran-3-yl)-1H-pyrazol-4-yl)pyrazolo[1,5-a]pyrazin-4-yl)oxy)phenyl)but-2-enamide], the IC50 lay within 1 to 10 nM.
Take `C=CC(=O)NC(C)c1cccc(Oc2nc(-c3cnn(C)c3)cn3nccc23)c1C` (stereo not drawn) [Example 137, N-(1-(2-methyl-3-((6-(1-methyl-1H-pyrazol-4-yl)pyrazolo[1,5-a]pyrazin-4-yl)oxy)phenyl)ethyl)acrylamide]: the IC50 lay within 10 to 1000 nM.
As for `CC#CC(=O)Nc1cncc(Oc2nc(-c3cnn(C)c3)cn3nccc23)c1` [Example 138, N-(5-((6-(1-methyl-1H-pyrazol-4-yl)pyrazolo[1,5-a]pyrazin-4-yl)oxy)pyridin-3-yl)but-2-ynamide], the IC50 lay in the range of 1 to 10 nM.
For `CN(C)C/C=C/C(=O)N(CC(F)F)[C@H]1CC[C@@H](Oc2nc(-c3cnn(C)c3)cn3nccc23)C1` [Example 147, (E)-N-(2,2-difluoroethyl)-4-(dimethylamino)-N-((1S,3R)-3-((6-(1-methyl-1H-pyrazol-4-yl)pyrazolo[1,5-a]pyrazin-4-yl)oxy)cyclopentyl)but-2-enamide] the value was 1 to 10 nM; for `C=CC(=O)N1C[C@@H]2C[C@H]1C[C@H]2Oc1nc(-c2cnn(C)c2)cn2nccc12` [Example 152, 1-((1S,4S,5R)-5-((6-(1-methyl-1H-pyrazol-4-yl)pyrazolo[1,5-a]pyrazin-4-yl)oxy)-2-azabicyclo[2.2.1]heptan-2-yl)prop-2-en-1-one], 1 to 10 nM.
Regarding `C=CC(=O)N1C[C@H]2C[C@@H]1C[C@@H]2Oc1nc(-c2cnn(C)c2)cn2nccc12` [Example 153, 1-((1R,4R,5S)-5-((6-(1-methyl-1H-pyrazol-4-yl)pyrazolo[1,5-a]pyrazin-4-yl)oxy)-2-azabicyclo[2.2.1]heptan-2-yl)prop-2-en-1-one], the IC50 fell in the range of 10 to 1000 nM.
Turning to `C=CC(=O)N1CC2CCC(N(C)c3cc(-c4cnn(C)c4)cn4nccc34)C2C1` (stereo not drawn) [Example 154, 1-(4-(methyl(6-(1-methyl-1H-pyrazol-4-yl)pyrazolo[1,5-a]pyridin-4-yl)amino)hexahydrocyclopenta[c]pyrrol-2(1H)-yl)prop-2-en-1-one], the IC50 fell in the range of 10 to 1000 nM.
With `C=CC(=O)N(C)[C@H]1C[C@@H](Oc2nc(-c3cnn([C@@H]4CCOC4)c3)cn3nccc23)C1` [Example 155, N-methyl-N-((cis)-3-((6-(1-((R)-tetrahydrofuran-3-yl)-1H-pyrazol-4-yl)pyrazolo[1,5-a]pyrazin-4-yl)oxy)cyclobutyl)acrylamide], the IC50 was less than 1 nM.
For `C=CC(=O)N(C)[C@H]1C[C@@H](Oc2nc(-c3cnn([C@H]4CCOC4)c3)cn3nccc23)C1` [Example 156, N-methyl-N-((cis)-3-((6-(1-((S)-tetrahydrofuran-3-yl)-1H-pyrazol-4-yl)pyrazolo[1,5-a]pyrazin-4-yl)oxy)cyclobutyl)acrylamide], the IC50 is less than 1 nM.
For `CC#CC(=O)N[C@H]1C[C@@](C)(Oc2nc(-c3cnn(C(F)(F)F)c3)cn3ncc(C)c23)C1` [Example 157, Cis N-(3-methyl-3-((3-methyl-6-(1-(trifluoromethyl)-1H-pyrazol-4-yl)pyrazolo[1,5-a]pyrazin-4-yl)oxy)cyclobutyl)but-2-ynamide] the value was 1 to 10 nM.
Regarding `C=CC(=O)N1C[C@@H]2[C@@H](CNc3cc(-c4cnn(C)c4)cn4nccc34)[C@@H]2C1` [Example 165, 1-((1R,5S,6s)-6-(((6-(1-methyl-1H-pyrazol-4-yl)pyrazolo[1,5-a]pyridin-4-yl)amino)methyl)-3-azabicyclo[3.1.0]hexan-3-yl)prop-2-en-1-one], the IC50 was 1 to 10 nM.
Turning to `CC#CC(=O)N[C@@H]1CCC[C@H](Oc2nc(-c3cnn(C)c3)cn3nccc23)C1` [Example 180, N-((1R,3S)-3-((6-(1-methyl-1H-pyrazol-4-yl)pyrazolo[1,5-a]pyrazin-4-yl)oxy)cyclohexyl)but-2-ynamide], the IC50 lay within 10 to 1000 nM.
`CN(C(=O)CCl)[C@H]1CCC[C@@H](Oc2nc(-c3cnn(C)c3)cn3nccc23)C1` [Example 181, 2-chloro-N-methyl-N-((1S,3R)-3-((6-(1-methyl-1H-pyrazol-4-yl)pyrazolo[1,5-a]pyrazin-4-yl)oxy)cyclohexyl)acetamide]: the IC50 is less than 1 nM.
In the case of `C=CC(=O)N(C)CCCOc1nc(-c2cnn(C)c2)cn2nccc12` [Example 182, N-methyl-N-(3-((6-(1-methyl-1H-pyrazol-4-yl)pyrazolo[1,5-a]pyrazin-4-yl)oxy)propyl)acrylamide], the IC50 fell in the range of 10 to 1000 nM.
On to `C=CC(=O)N(C)CC(C)CCOc1nc(-c2cnn(C)c2)cn2nccc12` (stereo not drawn) [Example 184, N-methyl-N-(2-methyl-4-((6-(1-methyl-1H-pyrazol-4-yl)pyrazolo[1,5-a]pyrazin-4-yl)oxy)butyl)acrylamide], for which the IC50 was 10 to 1000 nM.
Regarding `Cc1ncc(-c2cn3nccc3c(O[C@@]3(C)C[C@@H]4[C@H]3CCN4C(=O)C3=CCC3)n2)s1` [Example 196, Cyclobut-1-en-1-yl((1R,5R,6S)-6-methyl-6-((6-(2-methylthiazol-5-yl)pyrazolo[1,5-a]pyrazin-4-yl)oxy)-2-azabicyclo[3.2.0]heptan-2-yl)methanone], the IC50 fell in the range of 10 to 1000 nM.
Regarding `C=CC(=O)N1C[C@@H]2C[C@H](Oc3nc(-c4cnn(C)c4)cn4ncc(C)c34)[C@@H]2C1` [Example 198, 1-((1R,5S,6S)-6-((3-methyl-6-(1-methyl-1H-pyrazol-4-yl)pyrazolo[1,5-a]pyrazin-4-yl)oxy)-3-azabicyclo[3.2.0]heptan-3-yl)prop-2-en-1-one], the IC50 is 10 to 1000 nM.
For the compound `Cn1cc(-c2cc3nccn3c(O[C@]3(C)C[C@H](N(C)C(=O)/C=C/C(F)(F)F)C3)n2)cn1` [Example 201, (E)-4,4,4-trifluoro-N-methyl-N-((1s,3s)-3-methyl-3-((7-(1-methyl-1H-pyrazol-4-yl)imidazo[1,2-c]pyrimidin-5-yl)oxy)cyclobutyl)but-2-enamide], the IC50 is 1 to 10 nM.
On to `C=CC(=O)N1CCC2(CC1)CC(Oc1nc(-c3cnn(C)c3)cn3nccc13)C2` [Example 208, 1-(2-((6-(1-methyl-1H-pyrazol-4-yl)pyrazolo[1,5-a]pyrazin-4-yl)oxy)-7-azaspiro[3.5]nonan-7-yl)prop-2-en-1-one], for which the IC50 is 10 to 1000 nM.
Consider `C=CC(=O)N(C)CC1(COc2nc(-c3cnn(C)c3)cn3nccc23)CC1` [Example 216, N-methyl-N-((1-(((6-(1-methyl-1H-pyrazol-4-yl)pyrazolo[1,5-a]pyrazin-4-yl)oxy)methyl)cyclopropyl)methyl)acrylamide], for which the IC50 is 10 to 1000 nM.
Consider `CC#CC(=O)N(C)[C@H]1C[C@@H](Oc2nc(-c3cnn(C)c3)c(F)n3nccc23)C1` [Example 222, N-((cis)-3-((7-fluoro-6-(1-methyl-1H-pyrazol-4-yl)pyrazolo[1,5-a]pyrazin-4-yl)oxy)cyclobutyl)-N-methylbut-2-ynamide], for which the IC50 was in the range of 10 to 1000 nM.
As for `CC#CC(=O)N(CCF)[C@H]1C[C@H](Oc2nc(-c3cnn(C)c3)cn3nccc23)C1` [Example 223, N-(2-fluoroethyl)-N-((trans)-3-((6-(1-methyl-1H-pyrazol-4-yl)pyrazolo[1,5-a]pyrazin-4-yl)oxy)cyclobutyl)but-2-ynamide], the IC50 lay within 10 to 1000 nM.

For orientation: IC50 means the concentration needed to halve the response being measured.
